Data: a melting point compilation (Tetko et al.; mined from patent text by program, amines drawn as free bases though some values may be those of a salt)
Residues, ends and D or L forms follow the SMILES beside them. *: point of attachment. Cbz = O=C(OCc1ccccc1)*

Row | melting point [°C] | Structure (SMILES)
1 | 204 to 205 | O=C1CCC(=NNc2ccc(I)cc2)c2ncccc2N1
2 | 133 to 136 | CCOC(=O)c1csc(Nc2ccc(F)cc2)n1
3 | 102 to 104 | CC(C)(C)c1ccc(C[C@@H](C(=O)O)[C@@H](O)c2ccc(F)cc2)cc1 (racemic)
4 | 75 to 77 | COC(=O)CCSCC(=O)c1cc2c(cc1Cl)NC(=O)C2
5 | 213 to 215 | O=C(O)c1cccc([N+](=O)[O-])c1Nc1ccccc1Cl
6 | > 60 | CCOC(=O)c1c(N2CCC(N(C)C)CC2)c2cc(C)ccc2n(Cc2ccccc2)c1=O
7 | 208 | CS(=O)(=O)C(=C1CN(C(c2ccccc2)c2ccccc2)C1)c1cccc(F)c1F
8 | 135 to 143 | Cc1cc(C)c(-c2nc(Oc3ccccc3)nc(Oc3ccccc3)n2)c(C)c1
9 | 174 | Cc1nn(C)c(C)c1-c1cncc(OC2SCC(O)C(O)C2O)c1 (stereo unspecified)
10 | 135 to 137 | CCc1cn(C2CC(O)C(CN(C)Cc3ccccc3)O2)c(=O)[nH]c1=O (stereo unspecified)
11 | 128 to 132 | N#CC(O)C(Cc1ccccc1)N1C(=O)c2ccccc2C1=O (stereo unspecified)
12 | 295 to 300 | COc1cccc2c(=O)n3nc(C(=O)n4ccnc4)cc3[nH]c12
13 | 111 to 113 | CCCC(=O)c1ccc(OCCCC(=O)O)c(Cl)c1Cl
14 | 69 to 70 | CCCCOc1ccc(CCCOc2c(CC(=O)O)cccc2OC)c(Oc2ccc(C(F)(F)F)cn2)c1
15 | 75 to 85 | C[C@@H](S[C@H]1CO[C@H](/C=C/C=C/c2ccc(OCC(F)(F)C(F)F)cc2)OC1)[C@](O)(Cn1cncn1)c1ccc(F)cc1F
16 | 167 to 169 | NC(=O)c1sc(Oc2ccc3c(c2)OCO3)c2c1CCc1cnoc1-2

Row | melting point [°C] | Structure (SMILES)
17 | 210 to 213 | O=C(/C=C/c1ccc(Sc2ccccc2[N+](=O)[O-])c(Cl)c1Cl)N1CCOCC1
18 | 197 to 199 | Cc1sc(N2C(=O)c3ccccc3C2=O)c(C(=O)c2ccc(Cl)cc2)c1CN(C)Cc1ccccc1
19 | 159 to 160 | CC(C)(CC/C=C\[C@@H]1C[C@@H](NS(=O)(=O)c2ccc(Cl)cc2)CN1S(=O)(=O)c1ccc(Cl)cc1)C(=O)O
20 | 65 to 69 | CCOC(=O)CSc1cc(C)nc(N)n1
21 | 207 to 210 | NC1Cc2ccccc2N(C(=O)c2ccc(NC(=O)c3cc(Cl)cc(Cl)c3)cc2)C1 (stereo unspecified)
22 | 107 | COC1=C(OC)C(=O)C(CCCCCCCCCC(=O)N[C@@H](CCCCN)C(=O)O)=C(C)C1=O
23 | 120 to 122 | CCOC(=O)c1ncc(-c2ccc(Br)cc2)o1
24 | 130 to 133 | CN1CCNC(=O)c2cccc(N)c21
25 | 107 to 110 | COC=C(C(=O)OC)c1ccccc1C#CC1=CCN(c2ccc(Cl)cc2)O1
26 | 148 to 150 | CNC(=O)c1c(-c2ccccc2)noc1CC(O)c1ccc(C)cc1 (stereo unspecified)
27 | 117 to 119 | COc1c(N2C[C@H]3[C@@H](F)CC[C@@]3(N)C2)c(F)cc2c(=O)c(C(=O)O)cn([C@@H]3C[C@@H]3F)c12
28 | 34 to 35 | COC(=O)CCc1cnoc1-c1ccc(Cl)s1
29 | 153 to 154 | CCCn1c(=O)c(C=O)c2n(c1=O)CCCS2
30 | 155 to 157 | Cc1[nH]c(C(=O)N2CCCC2)c(C)c1-c1nc2ccc(C(=O)c3ccccc3)cc2[nH]1
31 | 188 | Oc1ccccc1-c1ccc(Cl)nn1

More lines, now with the values behind:

Row | Structure (SMILES) | melting point [°C]
32 | FC(F)(F)c1ccc(-c2nc(Br)cc(Br)n2)cc1 | 87
33 | O=C(O)Cn1c2ccccc2c2sccc(=O)c21 | 275 to 278
34 | COc1ccc(-c2cc(=O)n(Cc3c(Cl)cc(Cl)cc3Cl)nc2-c2ccc(OC)cc2)cc1 | 142 to 143
35 | COC(=O)c1ccc(O)c(O)c1O | 221
36 | CN1C(=O)C(c2ccc(OC(F)(F)F)c(F)c2)(c2ccc(F)c(-c3cncc(F)c3)c2)N=C1N (stereo unspecified) | 91 to 97
37 | COc1cn(-c2ccc(-n3cccn3)cc2F)nc(C(=O)N(C)OC)c1=O | 187 to 189
38 | C=CCN1CC(=O)N(c2c(C)cccc2C)C1=S | 43 to 46
39 | CS(=O)(=O)c1ccc(-n2nc(C(F)(F)F)cc2-c2ccc(-c3ccsc3)cc2)cc1 | 154 to 155
40 | O=C(O)c1cnn2c(C(F)F)cc(-c3ccc(C(F)(F)F)c(Cl)c3)nc12 | 216
41 | FC(F)Oc1cn(-c2c(Cl)cc(C(F)(F)F)cc2Cl)nc1C(F)(F)F | 55.5 to 58
42 | C[C@@H](n1cnc2cc(N3CCOCC3)ccc2c1=O)[C@](O)(Cn1cncn1)c1ccc(F)cc1F | 196 to 197
43 | COC(=O)c1[nH]c(=O)n(C(=O)NCCCN2CCN(c3ccccc3OC)CC2)c1-c1ccc(F)c(F)c1 | 122 to 124
44 | CCCC(NC(=O)Cc1ccc(C(=O)O)c(OCC)c1)c1ccccc1N1CCCCC1 (stereo unspecified) | 87 to 89
45 | COC(=O)Cn1c(C(=O)NC(N)=S)cc2cc(C)ccc21 | 222 to 224
46 | Cn1c(=O)[nH]c(=O)n(-c2cc([N+](=O)[O-])c(F)cc2Cl)c1=O | 135 to 139
47 | C[C@H]1C[C@@](O)(c2cccc(Sc3ccc4c(c3)CCC(=O)N4)c2)CCO1 | 180 to 181
48 | CCc1nc2c(C)cc(C)nc2n1Cc1ccc(C(C(C)C)C(C)C(=O)O)cc1 (stereo unspecified) | 84 to 90
49 | O=Cc1csc(Oc2ccccc2)n1 | 63
50 | CC1(C)CCC(C)(C)c2cc(-c3cc(-c4ccc(C(=O)O)cc4)ccc3-c3ccccc3)c(O)cc21 | 145
51 | O=c1[nH]c(CCCl)c(Cl)c(=O)[nH]1 | 225
52 | CCN1CC(=O)N(C(C)c2ccc(F)cc2)C1=S (stereo unspecified) | 93 to 95
53 | COc1ccc(-c2nc3ccccc3n3cncc23)cc1 | 187 to 188

Row | Structure (SMILES) | melting point [°C]
54 | CCOc1ccc(F)cc1C(C)(C)CC(O)(Cn1ccc(=O)c2ccccc21)C(F)(F)F (stereo unspecified) | 195 to 196
55 | COc1cc(C(=O)NS(=O)(=O)c2ccccc2Cl)ccc1Cc1c(Cl)n(C)c2ccc(CC3CCN(C)C3=O)cc12 (stereo unspecified) | 126 to 134
56 | CCOc1cc(C2COCCC2NC(=O)c2ccc(C(=O)N(C(C)C)C(C)C)cc2)ccc1OC (stereo unspecified) | 166 to 168
57 | CCCC(OC)c1ccc(Cl)c2nc3n(c12)CCCN3c1c(C)cc(Cl)cc1Cl (stereo unspecified) | 151 to 152
58 | N#Cc1ncn(Cc2ccc(Cl)c(Cl)c2)c1C#N | 95 to 96
59 | CC1Cc2cc(OCc3ccccc3)c(Cl)c(Cl)c2C1=O (stereo unspecified) | 153 to 155
60 | O=C1N(C(c2ccccc2)c2ccccc2)c2cccc(F)c2C12COc1cc3c(cc12)OCCO3 (stereo unspecified) | 196 to 198
61 | CC(=C1SC(=O)NC1=O)c1cccc(OCCCOc2c(-c3ccc(F)cc3)n(C)c3ccccc3c2=O)c1 | 168 to 170
62 | COc1c(N2CC(=NO)C3(CC3)C2)c(F)cc2c(=O)c(C(=O)O)cn(C3CC3)c12 | 233 to 235
63 | Cc1c(CC(=O)O)c2ccccc2n1-c1cc(Cl)nc(Cl)n1 | 205 to 207
64 | COC(=O)c1ccccc1OCCOc1cccc2oc(-c3ccccc3)cc(=O)c12 | 160 to 161
65 | CCCCON=C(C(=O)OCC)c1csc(N)n1 | 126 to 128
66 | COC(=O)c1cn2c(-c3ccc4ccccc4c3)csc2n1 | 187 to 188
67 | CC(C)N1CCC(C(=O)OC2c3ccccc3C(=O)N2c2ccc3ccc(Cl)nc3n2)CC1 (stereo unspecified) | 184
68 | CC(C)c1cc(C(C)C)c(-c2csc(Br)n2)c(C(C)C)c1 | 236
69 | Cc1cc(-c2nnn(C)n2)cc(C)c1OCCCC(O)c1nccn1C (stereo unspecified) | 151 to 154
70 | CCC(CC)N1CCC(CNc2ccc(Cl)cc2C(=O)Nc2ccc(Cl)cn2)CC1 | 136 to 138
71 | Cc1cccc(-c2cnc3c(N)ncnc3n2)c1 | 248 to 250
72 | O=C(Nc1cccc(C(F)(F)F)c1)NC1N=C(c2ccccc2F)c2ccccc2N(CC(=O)N2CC3CCC(CC3)C2)C1=O (racemic) | 226 to 227
73 | Cc1ccccc1C=C(C(=O)O)C(=O)O | 197 to 200
74 | Fc1cccc(F)c1Cn1c(-c2c(F)cccc2F)nc2ccccc21 | 145
75 | CCOC(=O)c1c(-c2ccccc2)c(-c2ccc(F)cc2)c(C=O)n1C(C)C | 88 to 90

Row | Structure (SMILES) | melting point [°C]
76 | COc1cc2c(CCN3CCN(c4cccc(Cl)c4C)CC3)nn(Cc3c[nH]cn3)c2cc1OC | 143 to 144
77 | Cn1cc(C(=O)NCc2ccc(Br)cc2)c(=O)c2cc(CN3CCOCC3)sc21 | 245 to 246
78 | CCCc1ccc(Cc2cccc(NC(N)=O)c2)n1CCC | 123 to 126
79 | CC(CC1=C(O)C(=O)c2ccccc2C1=O)C(F)(F)F (stereo unspecified) | 168
80 | COC(=O)c1ccc(C(=O)NS(=O)(=O)c2ccc(CCNC(=O)c3cc(Cl)ccc3OC)cc2)cn1 | 233
81 | O=C1Cn2c(c(Cl)c3ccccc32)-c2cc(Cl)ccc2N1 | 267 to 271
82 | COCCOc1cc2c(cc1C#Cc1ccccc1)NC(=O)CC(c1cccc(C#N)c1)=N2 | 174 to 176
83 | CC1CCCC(C)N1S(=O)(=O)N[C@@H](Cc1ccc(NC(=O)c2c(Cl)cccc2Cl)cc1)C(=O)O (stereo partly specified) | 159
84 | CCC(CC)c1ccc(C(=O)OC)c2nc(Oc3c(C)cc(Cl)cc3Cl)n(C)c12 | 177 to 178
85 | O=c1nc2n(c(=O)n1CCBr)CCCC2 | 64 to 66
86 | CON=C(C(=O)OC)c1cccc(OC)c1 | 66 to 68
87 | COC(=O)C(Cc1ccc(O)cc1)NC(=O)C(CO)NC(=O)C(Cc1c[nH]c2ccccc12)NC(=O)OCc1ccccc1 (stereo not drawn) (Cbz-Trp-Ser-Tyr-OMe; configuration not given here) | 149 to 152
88 | O=c1[nH]c2ccncc2c2nc(-c3ccco3)nn12 | 312 to 313
89 | O=C1C=CC(O)(c2nccs2)C=C1 | 138 to 139
90 | CCOC(=O)[C@@]1(C)CSC(c2ccc(OCCOCCOC)cc2O)=N1 | 68 to 70
91 | CC(=O)Nc1ccc(S(=O)(=O)NC(=N)c2cnccn2)cc1 | 270 to 274
92 | O=C(Nc1ccc(Cl)cc1)NC(c1ccccc1)C(O)c1ccccc1 (stereo unspecified) | 198
93 | COc1cc(C)c2c(Cl)c(OC)ccc2n1 | 97 to 100
94 | NC1=NCC(NC=O)(N[C@@H]2CC=C(CO)C2)C(Cl)=N1 (stereo partly specified) | 148 to 150
95 | CC12CCC3c4ccc(O)cc4CCC3C1CCC2=CF (stereo unspecified) | 125 to 129
96 | CCCOC(=O)c1cc(-n2c(OC)nc(C(F)(F)F)cc2=O)c(F)cc1Cl | 55 to 57
